{"source": "patent US20210122780A1", "about": "“COMPOSITIONS FOR THE PREVENTION AND TREATMENT OF PARKINSON'S DISEASE” (Metselex, Inc., priority 2018, published 2021)", "key": {"[1]": {"tested_on": "Primary rat hepatocytes", "assay": "Cell viability and apoptosis assays, TGF-β1-exposed hepatocytes", "assay_type": "cell-based", "conditions": "100 μM, with or without 3 U/ml alkaline phosphatase, TGF-β1 24 h", "protocol": "Cell culture and treatments. Primary rat hepatocytes were isolated from male rats (100-150 g) by collagenase perfusion. Briefly, rats were anesthetized with phenobarbital sodium (100 mg/kg body weight) injected into the peritoneal cavity. After administration of heparin (200 units/kg body weight) in the tail vein, the animals' abdomen was opened and the portal vein exposed and cannulated. The liver was then perfused at 37° C. in situ with a calcium-free Hanks' Balanced Salt Solution (HBSS) for ˜10 min, and then with 0.05% collagenase type IV in calcium-present HBSS for another 10 min. […] Cell viability was determined by trypan blue exclusion and was typically 80-85%. […]\nCell viability assays. […] Finally, absorbance was measured at 490 nm, with 690 nm as reference, using a Bio-Rad model 680-microplate reader (Bio-Rad Laboratories, Hercules, Calif., USA).\nTo assess cellular viability, the CellTiter-Fluor™ viability assay was used (Promega Corp., Madison, Wis., USA). Briefly, viable cells are measured using a fluorogenic, cell-permeant, peptide substrate (Gly-Phe-AFC), which is cleaved by the live-cell protease activity to generate a fluorescent signal proportional to the number of living cells. Cells were incubated with an equal volume of CellTiter-Fluor™ Reagent for 30 min at 37° C. and resulting fluorescence (380-400 nmEx/505 nmEm) measured using a GloMax+ Multi Detection System (Promega Corp.). […]"}, "[2]": {"tested_on": "Alkaline phosphatase from bovine intestinal mucosa", "assay": "Alkaline phosphatase activation of prodrugs (31P NMR)", "assay_type": "biochemical", "conditions": "in vitro, FIG. 5", "protocol": "Alkaline phosphatase activation of prodrugs 3 and 19d. Alkaline phosphatase from bovine intestinal mucosa (Sigma-Aldrich, P5521-2KU) was dissolved in 2.0 mL of a 0.100 M sodium glycine buffer containing 1.0 mM ZnCl2 and 1.0 mM MgCl2. This stock solution was stored at 4° C. between uses.\nCompound 19d (10.0 mg, 0.016 mmol) or compound 3 (8.7 mg, 0.016 mmol) were dissolved in 0.6 mL of a 0.100 M tris glycine buffer solution containing 1.0 mM ZnCl2 and 1.0 mM MgCl2. […] 50 μL of the previously prepared AP stock solution was further diluted by addition to 0.950 mL of a 0.100 M tris glycine buffer containing 1.0 mM ZnCl2 and 1.0 mM MgCl2. 10.0 μL of this diluted AP solution was added to the prodrug solution by syringe. A series of 42 inverse-gated decoupled ^31P NMR's were taken (24 scans each, approximately one minute acquisition time). Conversion (%) was determined from the relative integration of the starting material and product peaks, NMR time stamps were used to determine time. Each experiment was repeated three times."}}, "data": [{"smiles": "CC(CCC(=O)OCOP(=O)(O)O)C1CCC2C3C(O)CC4CC(O)CCC4(C)C3CCC12C", "note": "(centres unmarked) [Compound 19, ursodeoxycholic acid phosphonooxymethoxy ester]", "values": [{"measurement": "anti-apoptotic potency in in vitro assays", "setting": "[1]", "result": "highly active in these assays, but required activation by exogenous alkaline phosphatase"}, {"measurement": "rate of alkaline phosphatase catalyzed release of UDCA", "setting": "[2]", "result": "faster than prodrug 3"}]}]}
